From patent publication US8496967B2, “Oral formulations” (ARIAD Pharmaceuticals, Inc., priority 2006, dated 2013)

What was measured:
[1] = study of the degradation of AP23573; format: physicochemical
[2] = test system: human tumor cell lines, including prostate, endometrial, soft tissue and bone sarcoma, leukemia, lymphoma and glioblastoma cell lines; assay: in vivo xenograft models of human tumor cell lines
[3] = test system: human tumor cell lines, including prostate, endometrial, soft tissue and bone sarcoma, leukemia, lymphoma and glioblastoma cell lines; assay: in vitro proliferation of human tumor cell lines; format: cell-based

CO[C@H]1C[C@@H]2CC[C@@H](C)[C@@](O)(O2)C(=O)C(=O)N2CCCC[C@H]2C(=O)O[C@H]([C@H](C)C[C@@H]2CC[C@@H](OP(C)(C)=O)[C@H](OC)C2)CC(=O)[C@H](C)/C=C(\C)[C@@H](O)[C@@H](OC)C(=O)[C@H](C)C[C@H](C)/C=C/C=C/C=C/1C [AP23573, 43-dimethylphosphinate ester of rapamycin]
aqueous degradation ([1]; aqueous, forms ring opened seco-AP23573): undergoes aqueous degradation via cleavage of a lactone bond | oxidative degradation pathway ([1]; oxidation): oxidation of the compound's triene moiety | inhibition of proliferation of human tumor cell lines [2]: potently inhibited proliferation | inhibition of proliferation of human tumor cell lines [3]: potently inhibited proliferation
